# Columns and labels:
# [1] = target: Beta-3 adrenergic receptor (Homo sapiens) (UniProt P13945); conditions: Compound concentration 10.0 uM
# [2] = target: T1, Muscarinic acetylcholine receptor M1 (Homo sapiens) (UniProt P11229); conditions: Compound concentration 10.0 uM
# T1 sequence (whole entry): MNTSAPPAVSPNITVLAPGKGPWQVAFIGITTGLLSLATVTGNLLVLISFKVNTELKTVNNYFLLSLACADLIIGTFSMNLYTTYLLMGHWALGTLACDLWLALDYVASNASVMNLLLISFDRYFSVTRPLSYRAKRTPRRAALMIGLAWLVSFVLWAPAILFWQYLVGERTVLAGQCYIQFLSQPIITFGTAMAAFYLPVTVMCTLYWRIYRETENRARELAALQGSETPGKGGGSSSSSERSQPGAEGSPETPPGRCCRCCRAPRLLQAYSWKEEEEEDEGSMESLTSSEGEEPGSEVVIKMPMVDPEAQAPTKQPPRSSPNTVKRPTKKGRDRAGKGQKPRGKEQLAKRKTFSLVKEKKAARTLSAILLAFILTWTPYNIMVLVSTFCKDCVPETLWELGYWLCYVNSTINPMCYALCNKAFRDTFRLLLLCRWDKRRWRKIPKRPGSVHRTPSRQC
# [3] = target: 5-hydroxytryptamine receptor 3A (Homo sapiens) (UniProt P46098); conditions: Compound concentration 10.0 uM
# [4] = target: Histamine H1 receptor (Homo sapiens) (UniProt P35367); conditions: Compound concentration 10.0 uM
# [5] = target: Histamine H4 receptor (Homo sapiens) (UniProt Q9H3N8); conditions: Compound concentration 10.0 uM
# [6] = target: Beta-1 adrenergic receptor (Homo sapiens) (UniProt P08588); conditions: Compound concentration 10.0 uM
# [7] = target: Muscarinic acetylcholine receptor M4 (Homo sapiens) (UniProt P08173); conditions: Compound concentration 10.0 uM
# [8] = target: 5-hydroxytryptamine receptor 6 (Homo sapiens, UniProt P50406); assay: GPCRScan assay: inhibition of 5-HT6; parameters: radioligand conc. used [nm] 2.0 – 4.0, parental cells stable HEK
# [9] = target: D(4) dopamine receptor (Homo sapiens) (UniProt P21917); conditions: Compound concentration 10.0 uM
# [10] = target: Delta-type opioid receptor (Homo sapiens) (UniProt P41143); conditions: Compound concentration 10.0 uM
# [11] = species: Rattus norvegicus; conditions: Compound concentration 10.0 uM
# [12] = target: 5-hydroxytryptamine receptor 2A (Homo sapiens) (UniProt P28223); conditions: Compound concentration 10.0 uM
# [13] = target: 5-hydroxytryptamine receptor 1D (Homo sapiens) (UniProt P28221); conditions: Compound concentration 10.0 uM
# [14] = target: Mu-type opioid receptor (Homo sapiens) (UniProt P35372); conditions: Compound concentration 10.0 uM
# [15] = target: Sigma non-opioid intracellular receptor 1 (Homo sapiens) (UniProt Q99720); conditions: Compound concentration 10.0 uM
# [16] = target: D(2) dopamine receptor (Homo sapiens) (UniProt P14416); conditions: Compound concentration 10.0 uM
# [17] = target: T2, 5-hydroxytryptamine receptor 1B (Homo sapiens, UniProt P28222); conditions: Compound concentration 10.0 uM
# [18] = target: Alpha-2A adrenergic receptor (Homo sapiens) (UniProt P08913); conditions: Compound concentration 10.0 uM
# [19] = target: Sodium-dependent noradrenaline transporter (Homo sapiens) (UniProt P23975); conditions: Compound concentration 10.0 uM
# [20] = target: 5-hydroxytryptamine receptor 5A (Homo sapiens) (UniProt P47898); conditions: Compound concentration 10.0 uM
# [21] = target: D(1A) dopamine receptor (Homo sapiens, UniProt P21728); assay: GPCRScan assay: inhibition of D1; parameters: radioligand conc. used [nm] 0.6 – 1.3, parental cells HEKT
# [22] = target: Sigma intracellular receptor 2 (Homo sapiens) (UniProt Q5BJF2); conditions: Compound concentration 10.0 uM
# [23] = target: T3, Alpha-2C adrenergic receptor (Homo sapiens) (UniProt P18825); conditions: Compound concentration 10.0 uM
# T3 sequence (whole entry): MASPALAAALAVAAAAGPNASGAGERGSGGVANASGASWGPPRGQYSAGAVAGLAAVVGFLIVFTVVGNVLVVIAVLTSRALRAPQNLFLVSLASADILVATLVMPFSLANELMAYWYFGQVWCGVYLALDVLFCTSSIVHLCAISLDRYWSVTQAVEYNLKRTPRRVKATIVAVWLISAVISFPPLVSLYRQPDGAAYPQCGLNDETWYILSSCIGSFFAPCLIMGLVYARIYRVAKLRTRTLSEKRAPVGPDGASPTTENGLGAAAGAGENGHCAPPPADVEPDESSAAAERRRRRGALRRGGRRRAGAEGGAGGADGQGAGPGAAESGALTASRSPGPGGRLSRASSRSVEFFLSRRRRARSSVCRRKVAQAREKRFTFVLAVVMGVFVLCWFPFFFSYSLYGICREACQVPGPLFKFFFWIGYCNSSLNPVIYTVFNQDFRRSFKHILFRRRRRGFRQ
# [24] = target: T4, 5-hydroxytryptamine receptor 1A (Homo sapiens) (UniProt P08908); conditions: Compound concentration 10.0 uM
# T4 sequence (whole entry): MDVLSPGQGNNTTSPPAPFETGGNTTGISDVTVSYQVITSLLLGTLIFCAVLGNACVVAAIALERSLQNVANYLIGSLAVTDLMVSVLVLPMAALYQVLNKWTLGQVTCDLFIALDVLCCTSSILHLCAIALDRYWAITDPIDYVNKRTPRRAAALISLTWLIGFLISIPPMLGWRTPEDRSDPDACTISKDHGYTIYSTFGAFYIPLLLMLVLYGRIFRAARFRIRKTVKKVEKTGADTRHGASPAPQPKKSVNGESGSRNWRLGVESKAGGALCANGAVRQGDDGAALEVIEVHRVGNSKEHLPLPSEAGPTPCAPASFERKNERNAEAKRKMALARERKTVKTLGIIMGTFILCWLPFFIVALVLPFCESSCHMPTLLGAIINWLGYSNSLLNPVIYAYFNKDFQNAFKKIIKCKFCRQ
# [25] = target: Histamine H3 receptor (Homo sapiens) (UniProt Q9Y5N1); conditions: Compound concentration 10.0 uM
# [26] = target: T2, 5-hydroxytryptamine receptor 1B; assay: GPCRScan assay: inhibition of 5-HT1B; parameters: radioligand conc. used [nm] 0.6 – 1.5, parental cells stable HEK
# [27] = target: T5, Alpha-2B adrenergic receptor (Homo sapiens) (UniProt P18089); conditions: Compound concentration 10.0 uM
# T5 sequence (whole entry): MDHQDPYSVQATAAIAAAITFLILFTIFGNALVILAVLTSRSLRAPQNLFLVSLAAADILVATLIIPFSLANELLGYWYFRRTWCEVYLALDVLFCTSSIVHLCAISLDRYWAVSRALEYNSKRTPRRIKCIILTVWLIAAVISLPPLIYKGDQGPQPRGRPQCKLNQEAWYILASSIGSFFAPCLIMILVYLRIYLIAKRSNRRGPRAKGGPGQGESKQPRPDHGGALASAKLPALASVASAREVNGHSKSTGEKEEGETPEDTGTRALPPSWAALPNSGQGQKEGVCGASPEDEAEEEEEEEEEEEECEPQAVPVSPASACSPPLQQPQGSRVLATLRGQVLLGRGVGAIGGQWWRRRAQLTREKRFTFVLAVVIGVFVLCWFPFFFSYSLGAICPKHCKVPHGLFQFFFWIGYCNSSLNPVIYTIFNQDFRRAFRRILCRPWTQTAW
# [28] = target: Histamine H2 receptor (Homo sapiens) (UniProt P25021); conditions: Compound concentration 10.0 uM
# [29] = target: D(3) dopamine receptor (Homo sapiens) (UniProt P35462); conditions: Compound concentration 10.0 uM
# [30] = target: Sodium-dependent dopamine transporter (Homo sapiens) (UniProt Q01959); conditions: Compound concentration 10.0 uM
# [31] = target: Kappa-type opioid receptor (Homo sapiens) (UniProt P41145); conditions: Compound concentration 10.0 uM
# T2 sequence (P28222 whole entry): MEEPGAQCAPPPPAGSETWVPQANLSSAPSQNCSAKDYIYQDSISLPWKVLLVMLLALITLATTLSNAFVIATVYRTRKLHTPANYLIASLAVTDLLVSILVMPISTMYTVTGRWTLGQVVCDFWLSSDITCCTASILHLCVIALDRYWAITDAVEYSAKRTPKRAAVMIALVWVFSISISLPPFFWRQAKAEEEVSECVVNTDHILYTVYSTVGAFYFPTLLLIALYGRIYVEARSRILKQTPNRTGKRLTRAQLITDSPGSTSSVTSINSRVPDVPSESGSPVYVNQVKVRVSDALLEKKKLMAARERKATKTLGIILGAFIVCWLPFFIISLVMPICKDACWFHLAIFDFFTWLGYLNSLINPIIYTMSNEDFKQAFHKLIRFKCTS
# Sequence of 5-hydroxytryptamine receptor 6 (P50406 whole entry): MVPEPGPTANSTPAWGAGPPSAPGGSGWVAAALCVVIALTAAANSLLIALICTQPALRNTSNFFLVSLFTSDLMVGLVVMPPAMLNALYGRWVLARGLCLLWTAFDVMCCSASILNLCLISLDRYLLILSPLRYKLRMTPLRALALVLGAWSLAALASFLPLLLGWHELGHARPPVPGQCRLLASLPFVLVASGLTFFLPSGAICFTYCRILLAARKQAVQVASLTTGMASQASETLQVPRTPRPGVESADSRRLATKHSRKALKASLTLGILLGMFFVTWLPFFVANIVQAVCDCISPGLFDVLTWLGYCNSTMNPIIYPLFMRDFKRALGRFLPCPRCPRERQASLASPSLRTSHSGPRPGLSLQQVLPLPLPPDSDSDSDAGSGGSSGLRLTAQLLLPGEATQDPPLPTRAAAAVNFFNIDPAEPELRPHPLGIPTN
# Sequence of Muscarinic acetylcholine receptor M4 (Homo sapiens) (P08173 whole entry): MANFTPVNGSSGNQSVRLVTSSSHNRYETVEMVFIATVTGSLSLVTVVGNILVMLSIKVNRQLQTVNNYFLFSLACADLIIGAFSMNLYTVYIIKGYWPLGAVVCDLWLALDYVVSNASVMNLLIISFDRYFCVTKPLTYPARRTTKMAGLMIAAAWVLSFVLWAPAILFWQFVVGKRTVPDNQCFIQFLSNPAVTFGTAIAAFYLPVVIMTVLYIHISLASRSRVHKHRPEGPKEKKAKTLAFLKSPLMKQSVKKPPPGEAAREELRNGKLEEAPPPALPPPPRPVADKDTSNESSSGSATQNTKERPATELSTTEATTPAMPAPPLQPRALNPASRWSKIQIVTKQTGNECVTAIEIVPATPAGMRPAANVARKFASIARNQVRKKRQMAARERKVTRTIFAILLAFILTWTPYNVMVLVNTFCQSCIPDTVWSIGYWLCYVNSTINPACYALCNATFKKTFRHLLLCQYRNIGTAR
# Sequence of Beta-1 adrenergic receptor (Homo sapiens) (P08588 whole entry, looked up): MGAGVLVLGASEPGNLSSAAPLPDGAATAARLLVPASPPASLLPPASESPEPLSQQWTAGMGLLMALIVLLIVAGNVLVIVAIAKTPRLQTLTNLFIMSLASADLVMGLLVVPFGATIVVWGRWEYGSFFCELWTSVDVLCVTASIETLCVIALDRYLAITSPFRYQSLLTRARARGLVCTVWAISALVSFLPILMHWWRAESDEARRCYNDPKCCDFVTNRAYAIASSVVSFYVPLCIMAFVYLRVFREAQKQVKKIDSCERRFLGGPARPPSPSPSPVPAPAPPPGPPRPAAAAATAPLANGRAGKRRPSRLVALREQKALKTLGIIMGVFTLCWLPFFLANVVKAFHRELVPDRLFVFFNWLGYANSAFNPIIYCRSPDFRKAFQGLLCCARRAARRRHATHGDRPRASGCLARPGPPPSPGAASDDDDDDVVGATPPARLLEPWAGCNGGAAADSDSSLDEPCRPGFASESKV
# Sequence of D(3) dopamine receptor (Homo sapiens) (P35462 whole entry): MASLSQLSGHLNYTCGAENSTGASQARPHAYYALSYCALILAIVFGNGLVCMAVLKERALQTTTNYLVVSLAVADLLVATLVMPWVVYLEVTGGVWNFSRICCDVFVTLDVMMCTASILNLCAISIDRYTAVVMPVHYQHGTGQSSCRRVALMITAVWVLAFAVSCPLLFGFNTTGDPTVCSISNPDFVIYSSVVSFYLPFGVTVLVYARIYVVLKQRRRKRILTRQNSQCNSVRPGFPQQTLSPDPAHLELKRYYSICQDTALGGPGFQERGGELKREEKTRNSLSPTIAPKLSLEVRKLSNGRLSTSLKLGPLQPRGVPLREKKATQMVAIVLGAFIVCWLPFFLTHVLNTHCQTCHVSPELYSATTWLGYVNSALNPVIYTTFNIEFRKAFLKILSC
# Sequence of Histamine H1 receptor (Homo sapiens) (P35367 whole entry): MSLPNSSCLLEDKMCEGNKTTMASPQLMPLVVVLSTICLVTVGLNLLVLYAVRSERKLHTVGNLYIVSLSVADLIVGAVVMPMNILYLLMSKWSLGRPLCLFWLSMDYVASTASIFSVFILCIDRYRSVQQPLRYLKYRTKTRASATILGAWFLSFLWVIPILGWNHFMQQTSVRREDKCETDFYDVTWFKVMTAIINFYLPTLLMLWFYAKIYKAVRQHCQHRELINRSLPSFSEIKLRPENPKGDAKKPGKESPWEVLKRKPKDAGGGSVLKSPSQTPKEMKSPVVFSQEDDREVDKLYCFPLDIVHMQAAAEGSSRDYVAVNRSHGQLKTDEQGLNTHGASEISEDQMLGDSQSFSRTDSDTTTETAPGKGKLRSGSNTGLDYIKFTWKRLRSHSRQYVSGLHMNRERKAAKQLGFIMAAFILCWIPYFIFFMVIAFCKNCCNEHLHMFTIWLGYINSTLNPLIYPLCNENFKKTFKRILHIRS
# Sequence of Delta-type opioid receptor (Homo sapiens) (P41143 whole entry): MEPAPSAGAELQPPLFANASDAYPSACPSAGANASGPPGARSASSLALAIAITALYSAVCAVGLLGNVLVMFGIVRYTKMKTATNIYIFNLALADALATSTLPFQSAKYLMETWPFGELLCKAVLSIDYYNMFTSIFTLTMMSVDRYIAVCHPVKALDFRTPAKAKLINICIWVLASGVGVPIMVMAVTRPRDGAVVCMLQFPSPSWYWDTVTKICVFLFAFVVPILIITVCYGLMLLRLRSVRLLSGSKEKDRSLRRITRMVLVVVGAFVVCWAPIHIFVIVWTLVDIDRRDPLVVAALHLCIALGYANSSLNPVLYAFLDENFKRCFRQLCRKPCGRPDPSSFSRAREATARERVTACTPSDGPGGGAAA
# Sequence of Sigma intracellular receptor 2 (Homo sapiens) (Q5BJF2 whole entry): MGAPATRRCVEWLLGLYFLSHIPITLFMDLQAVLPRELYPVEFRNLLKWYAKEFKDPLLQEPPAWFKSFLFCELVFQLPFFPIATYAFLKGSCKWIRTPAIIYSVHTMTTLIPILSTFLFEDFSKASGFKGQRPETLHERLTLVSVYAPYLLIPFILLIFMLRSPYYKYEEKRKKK
# Sequence of Histamine H4 receptor (Homo sapiens) (Q9H3N8 whole entry): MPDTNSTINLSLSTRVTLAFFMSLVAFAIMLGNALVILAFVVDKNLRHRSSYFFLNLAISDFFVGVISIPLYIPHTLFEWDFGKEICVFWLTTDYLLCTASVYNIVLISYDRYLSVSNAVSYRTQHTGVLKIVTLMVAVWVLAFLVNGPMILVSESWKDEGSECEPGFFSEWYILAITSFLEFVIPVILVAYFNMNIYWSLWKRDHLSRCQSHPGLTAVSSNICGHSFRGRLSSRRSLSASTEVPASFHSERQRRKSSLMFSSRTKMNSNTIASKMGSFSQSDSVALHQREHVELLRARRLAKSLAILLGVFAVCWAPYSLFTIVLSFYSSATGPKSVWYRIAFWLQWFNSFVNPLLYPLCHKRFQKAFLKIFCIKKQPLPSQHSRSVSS
# Sequence of 5-hydroxytryptamine receptor 2A (Homo sapiens) (P28223 whole entry): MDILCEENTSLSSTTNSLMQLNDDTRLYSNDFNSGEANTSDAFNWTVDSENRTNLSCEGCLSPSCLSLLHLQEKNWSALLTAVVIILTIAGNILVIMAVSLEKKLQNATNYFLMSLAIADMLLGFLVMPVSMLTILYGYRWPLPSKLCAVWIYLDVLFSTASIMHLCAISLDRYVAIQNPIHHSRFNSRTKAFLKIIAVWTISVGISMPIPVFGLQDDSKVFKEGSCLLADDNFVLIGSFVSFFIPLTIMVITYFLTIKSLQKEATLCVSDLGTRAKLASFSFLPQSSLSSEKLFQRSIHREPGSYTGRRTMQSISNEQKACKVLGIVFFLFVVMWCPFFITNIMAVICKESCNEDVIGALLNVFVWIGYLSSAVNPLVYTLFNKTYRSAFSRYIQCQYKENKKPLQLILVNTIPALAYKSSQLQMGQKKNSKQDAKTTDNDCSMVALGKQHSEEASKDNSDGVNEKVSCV
# Sequence of Mu-type opioid receptor (Homo sapiens) (P35372 whole entry): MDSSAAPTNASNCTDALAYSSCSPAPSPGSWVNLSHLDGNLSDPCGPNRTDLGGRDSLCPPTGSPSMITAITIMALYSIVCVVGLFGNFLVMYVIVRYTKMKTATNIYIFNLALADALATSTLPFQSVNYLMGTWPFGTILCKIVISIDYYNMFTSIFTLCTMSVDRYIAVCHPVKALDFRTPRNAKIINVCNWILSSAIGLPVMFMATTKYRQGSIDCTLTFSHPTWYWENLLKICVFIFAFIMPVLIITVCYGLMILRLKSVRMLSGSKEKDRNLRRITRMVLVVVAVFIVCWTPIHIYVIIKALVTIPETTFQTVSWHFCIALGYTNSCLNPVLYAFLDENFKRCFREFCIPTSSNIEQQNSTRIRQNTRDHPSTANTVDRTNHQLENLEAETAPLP
# Sequence of D(2) dopamine receptor (Homo sapiens) (P14416 whole entry): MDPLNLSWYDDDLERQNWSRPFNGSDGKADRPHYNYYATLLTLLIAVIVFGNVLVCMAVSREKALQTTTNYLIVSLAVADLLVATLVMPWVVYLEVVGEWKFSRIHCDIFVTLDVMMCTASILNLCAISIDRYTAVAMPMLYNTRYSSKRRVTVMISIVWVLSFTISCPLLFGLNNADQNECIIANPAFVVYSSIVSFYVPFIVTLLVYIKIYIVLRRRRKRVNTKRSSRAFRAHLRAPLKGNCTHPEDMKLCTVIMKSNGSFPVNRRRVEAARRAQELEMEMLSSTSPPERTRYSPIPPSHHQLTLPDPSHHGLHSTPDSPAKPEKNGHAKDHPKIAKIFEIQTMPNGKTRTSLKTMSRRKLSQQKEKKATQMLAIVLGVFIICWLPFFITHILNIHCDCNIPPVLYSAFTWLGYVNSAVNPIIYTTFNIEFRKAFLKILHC
structure (smiles),measurement,setting,value
CC[C@H](Nc1c(C#N)c(-c2ccc(-c3cccc(C)c3F)cc2)nc2cnccc12)C(=O)O [BAY-0361],inhibition,[1],21.6%
same,inhibition,[2],-8.53%
same,inhibition,[3],2.07%
same,inhibition,[4],-8.53%
same,inhibition,[5],18.7%
same,inhibition,[6],5.52%
same,inhibition,[7],-0.83%
same,Ki,[8],> 10 µM
same,pKi,[8],< 5
same,inhibition,[9],-8.01%
same,inhibition,[10],3.55%
same,inhibition,[11],41.8%
same,inhibition,[12],-9.27%
same,inhibition,[13],46.6%
same,inhibition,[14],-9.08%
same,inhibition,[15],23.1%
same,inhibition,[16],-5.16%
same,inhibition,[17],51%
same,inhibition,[18],8.09%
same,inhibition,[19],-6.08%
same,inhibition,[20],-9.19%
same,Ki,[21],9.48 µM
same,inhibition,[22],11.6%
same,inhibition,[23],-6.46%
same,inhibition,[24],8.67%
same,inhibition,[25],-8.98%
same,Ki,[26],> 10 µM
same,pKi,[26],< 5
same,inhibition,[27],-7.7%
same,inhibition,[28],9.78%
same,inhibition,[29],7.14%
same,inhibition,[30],38.8%
same,inhibition,[31],4.36%

# — ChEMBL document CHEMBL4800729 (2021)
